Reference: patent publication US8470786B2, “Pyrroloquinolinyl-pyrrolidine-2,5-dione compositions and methods for preparing and using same” (ArQule, Inc., priority 2010, dated 2013)

Key:
[1] = tested on: HT29; experiment: Cell proliferation analysis (MTS assay); type: cell-based; settings: Homo sapiens, HT-29, HT29 cells, treated for 72 hours, read-out: Antiproliferative activity (HT29 MTS GI50)
Protocol: Cell survival was determined by the MTS assay. Briefly, cells were plated in a 96-well plate at 2,000-10,000 cells per well, cultured for 24 hours in complete growth medium, and then treated with various drugs and drug combinations for 72 hours. MTS was added and incubated for 4 hour, followed by assessment of cell viability using the microplate reader at 570 nm. Data were normalized to untreated controls and analyzed.

[2] = biological target: c-Met (Homo sapiens, UniProt P08581); experiment: c-Met autophosphorylation inhibition assay (biochemical); settings: method per J. Biol. Chem. 286(23), 20666-20676
Protocol: c-Met Autophosphorylation Inhibition assay was carried out according to Journal of Biological Chemistry 286(23), 20666-20676 (Jun. 10, 2010).

c-Met, sequence (P08581 25-1390): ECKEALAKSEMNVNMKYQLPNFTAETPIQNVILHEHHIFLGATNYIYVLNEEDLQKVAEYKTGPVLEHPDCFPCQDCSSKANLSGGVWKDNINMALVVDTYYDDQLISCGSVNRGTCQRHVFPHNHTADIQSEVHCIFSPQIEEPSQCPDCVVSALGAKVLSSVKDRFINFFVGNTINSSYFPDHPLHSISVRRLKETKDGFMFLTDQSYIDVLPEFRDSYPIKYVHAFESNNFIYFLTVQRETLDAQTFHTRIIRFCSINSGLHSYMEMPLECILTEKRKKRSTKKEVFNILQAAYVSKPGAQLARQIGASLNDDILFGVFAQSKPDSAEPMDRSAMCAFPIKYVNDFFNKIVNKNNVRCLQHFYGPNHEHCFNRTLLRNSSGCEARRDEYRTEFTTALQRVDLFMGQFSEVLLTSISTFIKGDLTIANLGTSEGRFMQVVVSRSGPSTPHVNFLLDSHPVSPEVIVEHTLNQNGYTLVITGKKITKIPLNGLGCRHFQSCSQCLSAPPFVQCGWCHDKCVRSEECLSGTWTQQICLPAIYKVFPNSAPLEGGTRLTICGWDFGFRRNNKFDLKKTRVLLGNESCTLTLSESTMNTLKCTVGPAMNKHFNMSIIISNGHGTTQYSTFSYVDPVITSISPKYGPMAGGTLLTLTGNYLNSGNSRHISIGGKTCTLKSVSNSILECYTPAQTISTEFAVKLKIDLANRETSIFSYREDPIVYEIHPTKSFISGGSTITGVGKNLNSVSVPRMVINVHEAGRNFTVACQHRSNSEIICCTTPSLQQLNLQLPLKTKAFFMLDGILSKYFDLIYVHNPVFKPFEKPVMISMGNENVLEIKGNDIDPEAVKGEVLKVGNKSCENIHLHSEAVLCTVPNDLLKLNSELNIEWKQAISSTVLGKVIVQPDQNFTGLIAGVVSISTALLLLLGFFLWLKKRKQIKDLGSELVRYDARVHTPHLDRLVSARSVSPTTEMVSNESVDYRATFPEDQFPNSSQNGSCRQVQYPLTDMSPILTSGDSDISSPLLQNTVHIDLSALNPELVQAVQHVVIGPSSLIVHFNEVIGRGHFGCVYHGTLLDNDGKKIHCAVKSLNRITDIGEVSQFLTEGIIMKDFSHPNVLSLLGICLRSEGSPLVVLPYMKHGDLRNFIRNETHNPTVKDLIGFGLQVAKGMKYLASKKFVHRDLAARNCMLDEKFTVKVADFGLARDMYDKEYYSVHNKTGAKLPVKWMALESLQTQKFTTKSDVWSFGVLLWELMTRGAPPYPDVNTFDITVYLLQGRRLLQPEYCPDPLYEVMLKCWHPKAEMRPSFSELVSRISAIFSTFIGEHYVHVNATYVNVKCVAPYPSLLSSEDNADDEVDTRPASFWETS

SMILES | melting point [°C] | GI50 [1] [µM] | IC50 [2] [nM]
O=C1NC(=O)[C@@H](c2cn3c4c(cccc24)CCC3)[C@@H]1c1c[nH]c2cc(O)ccc12 (racemic) [Compound 1, (rac)-trans-3-(5,6-dihydro-4H-pyrrolo[3,2,1-ij]quinolin-1-yl)-4-(6-hydroxy-1H-indol-3-yl)pyrrolidine-2,5-dione] | 167 to 170 |  | 
O=C1NC(=O)[C@@H](c2cn3c4c(cccc24)C(O)CC3)[C@@H]1c1c[nH]c2ccccc12 (mixture of isomers) [Compound 3, (rac)-trans-3-(6-hydroxy-5,6-dihydro-4H-pyrrolo[3,2,1-ij]quinolin-1-yl)-4-(1H-indol-3-yl)pyrrolidine-2,5-dione] | 153 to 155 |  | 
O=C1CCn2cc([C@@H]3C(=O)NC(=O)[C@H]3c3c[nH]c4ccccc34)c3cccc1c32 (racemic) [Compound 8, (3R,4R)-3-(1H-indol-3-yl)-4-(6-oxo-5,6-dihydro-4H-pyrrolo[3,2,1-ij]quinolin-1-yl)pyrrolidine-2,5-dione] |  | 0.68 ± 0.05 | 1600 ± 250
O=C1NC(=O)[C@@H](c2cn3c4c(cccc24)CCC3=O)[C@@H]1c1c[nH]c2ccccc12 (racemic) [Compound 9, (3R,4R)-3-(1H-indol-3-yl)-4-(4-oxo-5,6-dihydro-4H-pyrrolo[3,2,1-ij]quinolin-1-yl)pyrrolidine-2,5-dione] |  | 3.1 ± 0.24 | 1000
O=C1NC(=O)[C@@H](c2cn3c4c(cccc24)[C@@H](O)CC3)[C@@H]1c1c[nH]c2ccccc12 [Compound 10, (3R,4R)-3-((S)-6-hydroxy-5,6-dihydro-4H-pyrrolo[3,2,1-ij]quinolin-1-yl)-4-(1H-indol-3-yl)pyrrolidine-2,5-dione] |  | 1.5 ± 0.21 | 2000 ± 210

Second part, the molecule after the results:

melting point [°C] | GI50 [1] [µM] | IC50 [2] [nM] | SMILES
 | 3.7 ± 0.42 | 2600 ± 70 | O=C1NC(=O)[C@@H](c2cn3c4c(cccc24)[C@H](O)CC3)[C@@H]1c1c[nH]c2ccccc12 [Compound 11, (3R,4R)-3-((R)-6-hydroxy-5,6-dihydro-4H-pyrrolo[3,2,1-ij]quinolin-1-yl)-4-(1H-indol-3-yl)pyrrolidine-2,5-dione]
 | 31 ± 7.1 | > 30000 | O=C1NC(=O)[C@H](c2cn3c4c(cccc24)[C@H](O)CC3)[C@H]1c1c[nH]c2ccccc12 [Compound 12, (3S,4S)-3-((R)-6-hydroxy-5,6-dihydro-4H-pyrrolo[3,2,1-ij]quinolin-1-yl)-4-(1H-indol-3-yl)pyrrolidine-2,5-dione]
 | 75 ± 33 | > 30000 | O=C1NC(=O)[C@H](c2cn3c4c(cccc24)[C@@H](O)CC3)[C@H]1c1c[nH]c2ccccc12 [Compound 13, (3S,4S)-3-((S)-6-hydroxy-5,6-dihydro-4H-pyrrolo[3,2,1-ij]quinolin-1-yl)-4-(1H-indol-3-yl)pyrrolidine-2,5-dione]
